The text below walks through data of patent publication US11357719B2, “Method for obtaining a diglycoside-enriched Armeria maritima extract, and use thereof in cosmetics” (BIOTECHMARINE, priority 2016, dated 2022).

One data set has as its system purified collagenase. As to the kind of experiment: Anti-collagenase activity, EnzCheck gelatinase/collagenase Assay Kit (cell-free, fluorimetry). The class given is biochemical, Clostridium Histolyticum. The note with it: for Fluorescence: 2 h incubation at room temperature, blank subtracted; for Inhibition: relative to control group. On the procedure:
A purified collagenase is used and the degradation of its pro-fluorescent substrate is monitored by fluorimetry.
The anti-collagenase activity is evaluated using a commercially available kit (EnzCheck™ gelatinase/collagenase Assay Kit, Molecular Probes, reference E-12055).
This is a test based on a cell-free biochemical evaluation using a purified collagenase from a […] (Clostridium Histolyticum) and a purified gelatin from porcine skin, purified type I collagen from bovine skin or purified type IV collagen from human placenta. […] The increase in the fluorescence is proportional to the MMP activity. A decrease in this fluorescence is expected in the presence of anti-MMP active agents. The test is validated using a reference anti-MMP inhibitor provided in the kit, 1,10-phenanthroline, tested at 0.01% and 0.001%.
The products are placed on a 96-well plate in the following manner:
The products are left to incubate for two hours at room temperature in darkness, then the fluorescence is determined (Excitation 495 nm; Emission: 515 nm). Each test is repeated three times. For each sample, the values are subtracted from the blank test. The percentage inhibition corresponds to the ratio of the mean of the collagenase activity obtained for each extract to the mean of the collagenase activity of the control group.

For a further data set, the system named is normal human fibroblasts. As to the kind of experiment: Phototoxicity evaluation based on OECD test no. 432 (in vitro 3T3 NRU phototoxicity test), MTT viability. It counts as cell-based. As to the method:
This evaluation is carried out based on the experimental conditions of test no. 432, entitled “in vitro 3T3 NRU phototoxicity test” from the OECD guidelines for testing chemicals, regarding conditions related to culture kinetics and to the acceptable dosage limit for Chlopromazine (CPZ). This guideline describes a method for evaluating photo-cytotoxicity by the relative reduction in the viability of the cells exposed to the chemical product in the presence or absence of light.
A pool of normal human fibroblasts of Caucasian type is used and amplified for five days in a 75 cm^2 flask in specific culture medium containing 10% FBS*. The cells are then seeded in culture wells of a 96-well plate (4 wells/condition), at 10 000 cells/well, in 200 μl of specific culture medium containing 10% FBS (Fetal Bovine Serum). 24 h after seeding, the cells are treated with the products for the test, prepared in EBSS (Earle's balance salt Solution) for one hour. At the end of this incubation, the cells are exposed (+irr) or not exposed (−irr) to a dose of 1 J/cm^2 of UVA, in the presence of the products being tested. At the end of this exposure, the cell layers are rinsed then brought back into contact with specific culture medium containing 2% of FBS. 24 h after this change, the cell viability is evaluated using the MTT method (colorimetric assay, visualized at 540 nm). The results are expressed as percentage viability relative to the control. The following parameters are deduced therefrom:
EC50: Concentration of active agent inducing 50% toxicity (−irr) or phototoxicity (+irr)
PIF (photo-irradiation factor): EC50(−irr)/EC50(+irr)
2<PIF<5: Probable phototoxicity

Several values for one entry are separate records, joined by “and”; a condition that tells them apart may be missing. Equal entries are not always repeated.

As to `c1cnc2c(c1)ccc1cccnc12` [1,10-phenanthroline], in the data set with purified collagenase (product at 0.001%), the Fluorescence was 37.13 AU and 24.41 AU; the Inhibition is 66% and 76%. In the data set with purified collagenase (product at 0.01%), the Fluorescence was 0.91 AU and 1.07 AU; the Inhibition worked out at 99%.

Turning to `CN(C)CCCN1c2ccccc2Sc2ccc(Cl)cc21` [CPZ, Chlopromazine], the “PIF (photo-irradiation factor): EC50(−irr)/EC50(+irr)” value in the data set on normal human fibroblasts (PIF<2 no phototoxicity, 2<PIF<5 probable phototoxicity, PIF>5 phototoxicity) is listed as 89.2. Further, the “EC50(+irr): concentration of active agent inducing 50% phototoxicity” value in the data set on normal human fibroblasts (exposed to 1 J/cm^2 of UVA, MTT viability 24 h after) was 0.25. Besides, in the data set on normal human fibroblasts (not exposed to UVA, MTT viability 24 h after), the “EC50(−irr): concentration of active agent inducing 50% toxicity” value turned out to be 22.30.

The Inhibition is the percentage by which the read-out fell short of the control. High values mean strong suppression, low ones little suppression.
